According to patent US10822311B2, “Pyrimidines and variants thereof, and uses therefor” (Afferent Pharmaceuticals Inc., priority 2016, dated 2020):
Where two headings read alike, the source gives them in different places.

Tests used:
[1] = biological target: T1, human P2X3 receptor (homomeric P2X3 channels) (Homo sapiens, UniProt P56373); assay: FlexStation calcium fluorescence assay, homomeric P2X3 channels in HEK293 cells; assay type: cell-based; settings: for IC50: HEK293 cells, hP2X3, agonist 1 μM α,β-meATP, read-out: Average pIC50 P2X3 (converted); for Selectivity P2X3/P2X2/3: Ratio=10^(P2X3pIC50−P2X2/3pIC50)
T1 construct: expressed in transfected cells; host or cells: HEK293 human embryonic kidney cells (HEK-hP2X3)
T1 sequence (P56373 1-397): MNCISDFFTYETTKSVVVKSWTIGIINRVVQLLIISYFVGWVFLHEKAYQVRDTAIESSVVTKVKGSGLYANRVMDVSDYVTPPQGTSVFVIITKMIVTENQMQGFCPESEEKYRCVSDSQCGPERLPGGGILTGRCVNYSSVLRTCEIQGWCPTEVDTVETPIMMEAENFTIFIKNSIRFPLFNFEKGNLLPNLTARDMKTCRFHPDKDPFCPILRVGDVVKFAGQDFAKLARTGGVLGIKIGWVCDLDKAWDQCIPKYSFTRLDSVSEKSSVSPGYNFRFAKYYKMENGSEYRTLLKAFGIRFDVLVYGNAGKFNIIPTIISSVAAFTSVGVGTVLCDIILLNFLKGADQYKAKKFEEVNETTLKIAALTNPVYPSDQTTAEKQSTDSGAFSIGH
Procedure: (§1) 1321N1 human astrocytoma and HEK293 human embryonic kidney cells were stably transfected with human P2X2 and P2X3 receptor subunits to form heteromeric P2X2/3 channels and passaged in flasks. Additionally, HEK293 cells were stably transfected with human P2X3 receptor subunits to form homomeric P2X3 channels.
(§2) Approximately 24 hours before the FlexStation calcium fluorescence experiment, cells were released from their flasks, centrifuged and re-suspended in nutrient medium. The cells were aliquoted into black-wall, clear-bottom 96 well plates at a density of 25,000 cells per well and incubated overnight in a humidified, CO2-enriched (5%) atmosphere at 37° C.
(§3) On the day of the experiment, cells were washed with assay buffer (calcium- and magnesium-free Hank's balanced salt solution, 20 mM HEPES, 2 mM CaCl2; AB) and loaded with 4 μM Fluo-4 (P2X2/3) or Calcium 6 (Molecular Devices, according to manufacturer's instructions; P2X3) calcium-sensitive fluorescent dye in 100 μL AB.
(§4) After 1 hour of dye loading at 37° C., 1321N1-hP2X2/3 cells were washed two times with AB and test compound or vehicle added to each well in a total volume of 150 μL AB. HEK-hP2X3 cells were not washed because the Calcium 6 dye kit includes an extracellular dye that quenches unabsorbed Calcium 6 dye; test compound or vehicle were added directly to the assay plates to achieve the appropriate concentration of test compound in a total volume of 150 μL AB.
(§5) After 20 minutes incubation at room temperature and protected from light, the assay plates were loaded into the FlexStation microplate reader and baseline fluorescence measured with an excitation wavelength of 485 nm and emission wavelength readings centered at 525 nm (515 nm cut off).
(§6) The agonist was dispensed by the FlexStation during fluorescence measurement to construct agonist activation and antagonist inhibition curves. The final agonist concentration for inhibition was 1 μM α,β-meATP for P2X3 and 3 μM ATP for P2X2/3. Peak fluorescence was measured and curves generated using a four parameter nonlinear regression equation.

[2] = biological target: T2, human P2X2/3 (heteromeric P2X2/3 channels) (Homo sapiens, UniProt P56373+Q9UBL9); assay: FlexStation calcium fluorescence assay, heteromeric P2X2/3 channels in 1321N1 cells; assay type: cell-based; settings: 1321N1 cells, hP2X2/3; agonist 3 μM ATP; highest concentration tested is 10 μM; read-out: Average pIC50 P2X2/3 (converted)
T2 construct: expressed in transfected cells; host or cells: 1321N1 human astrocytoma cells (1321N1-hP2X2/3)
T2 sequence (P56373 1-397): T1 sequence (P56373 1-397)
T2 sequence (Q9UBL9 1-471): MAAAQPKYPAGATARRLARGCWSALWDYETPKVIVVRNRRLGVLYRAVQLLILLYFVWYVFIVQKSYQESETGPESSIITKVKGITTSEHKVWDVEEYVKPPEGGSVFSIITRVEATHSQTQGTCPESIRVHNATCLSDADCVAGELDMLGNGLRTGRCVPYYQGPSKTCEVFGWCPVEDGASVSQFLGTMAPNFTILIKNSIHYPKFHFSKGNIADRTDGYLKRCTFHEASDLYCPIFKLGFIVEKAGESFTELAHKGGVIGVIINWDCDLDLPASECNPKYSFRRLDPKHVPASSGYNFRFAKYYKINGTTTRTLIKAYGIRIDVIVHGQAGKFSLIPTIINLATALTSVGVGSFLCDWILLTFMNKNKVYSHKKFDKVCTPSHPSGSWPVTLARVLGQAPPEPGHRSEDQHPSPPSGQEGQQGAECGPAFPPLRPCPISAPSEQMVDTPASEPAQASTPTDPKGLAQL
Procedure: as §1, §2, §3, §4, §5, §6

P2X3 [3] = assay: Mean pIC50s from Jahangir et al, P2X3; assay type: cell-based; settings: Table 3B, iodo; ratio from the Jahangir et al pIC50s
P2X3 [4] = settings: Table 3B, iodo; from Jahangir et al; cited from earlier work
P2X2/3 = biological target: T3, P2X2/3 (Homo sapiens, UniProt P56373+Q9UBL9); settings: Table 3B, iodo; from Jahangir et al; cited from earlier work
T3 sequence (P56373 1-397): T1 sequence (P56373 1-397)
T3 sequence (Q9UBL9 1-471): T2 sequence (Q9UBL9 1-471)

P2X3 [5] = settings: Table 3A, oxygen-linked; from Carter et al; cited from earlier work
P2X3 [6] = assay: Mean pIC50s from Carter et al, P2X3; assay type: cell-based

| Compound | IC50 [1] [nM] | Selectivity P2X3/P2X2/3 [1] | IC50 [2] [µM] | further results |
| --- | --- | --- | --- | --- |
| COc1cc(Oc2cnc(N)nc2NC2CCOCC2)c(C(C)C)cc1OC [Compound 40] | 1260 | >8 | > 10 |  |
| COc1cc(Oc2cnc(N)nc2NCCS(C)(=O)=O)c(C(C)C)cc1OC [Compound 41] | 398 | >27 | > 10 |  |
| COc1cc(Oc2cnc(N)nc2Nc2ccccc2)c(C(C)C)cc1OC [Compound 42] | 1000 | >10 | > 10 |  |
| COc1cc(Oc2cnc(N)nc2Nc2ccccn2)c(C(C)C)cc1OC [Compound 43] | 1580 | >5.6 | > 10 |  |
| COc1cc(Oc2cnc(N)nc2Nc2cnccn2)c(C(C)C)cc1OC [Compound 44] | 1000 | >10 | > 10 |  |
| COc1cc(Oc2cnc(N)nc2Nc2cccnn2)c(C(C)C)cc1OC [Compound 45] | 3160 | 3.5 | > 10 |  |
| COc1cc(Oc2cnc(N)nc2NCc2ccccc2)c(C(C)C)cc1OC [Compound 46] | 631 | 4.8 | 3.16 |  |
| COc1cc(Nc2cnc(N)nc2N)c(C(C)C)cc1OC [Compound 47] | 49 |  | 1.38 |  |
| COc1cc(C(C)C)c(Oc2cnc(N)nc2NCCO)cc1I [Row A, R = I] |  |  |  | Selectivity, R = I (P2X3 [3]): 1.6; P2X3 mean pIC50, R = I (P2X3 [4]): 8.0; P2X2/3 mean pIC50, R = I (P2X2/3): 7.8 |
| COc1cc(Oc2cnc(N)nc2N)c(C(C)C)cc1OC [Row A, X = O] |  |  |  | P2X3 mean pIC50, X = O (P2X3 [5]): 7.6 |
| COc1cc(C(C)C)c(Oc2cnc(N)nc2NCC(O)CO)cc1I (stereo not drawn) [Row B, R = I] |  |  |  | Selectivity, R = I (P2X3 [3]): 4.0; P2X3 mean pIC50, R = I (P2X3 [4]): 8.1; P2X2/3 mean pIC50, R = I (P2X2/3): 7.5 |
| COc1cc(C(C)C)c(Oc2cnc(N)nc2N)cc1I [Row B, X = O] |  |  |  | P2X3 mean pIC50, X = O (P2X3 [5]): 8.0; Selectivity, X = O (P2X3 [6]): 8 |
| COc1cc(C(C)C)c(Oc2cnc(N)nc2NC(CO)CO)cc1I [Row C, R = I] |  |  |  | Selectivity, R = I (P2X3 [3]): 2.5; P2X3 mean pIC50, R = I (P2X3 [4]): 8.7; P2X2/3 mean pIC50, R = I (P2X2/3): 8.3 |
| COc1cc(C(C)C)c(Oc2cnc(N)nc2N)cc1S(C)(=O)=O [Row C, X = O] |  |  |  | P2X3 mean pIC50, X = O (P2X3 [5]): 7.0; Selectivity, X = O (P2X3 [6]): 10 |
| COc1cc(C(C)C)c(Oc2cnc(N)nc2N)cc1Cl [Row D, X = O] |  |  |  | P2X3 mean pIC50, X = O (P2X3 [5]): 7.6; Selectivity, X = O (P2X3 [6]; Table 3A, oxygen-linked, ratio from the Carter et al pIC50s): 4 |
